In patent publication US20250295653A1, “Use Of Glycine Transporter- 1 Antagonists As Vascular Dementia And/Or Stroke Prophylactic/Treatment Agents” (Recherches Neuro-Hippocampe Inc., priority 2022, published 2025):
“Also recorded” adds a separate entry of the source. Values belong to the molecule of their own block, whether it stands above or below them.

What was measured:
NMDAR [1] = target: T1, NMDAR (Mus musculus, UniProt P35438); test: Whole-cell voltage-clamp recordings of evoked NMDAR-EPSCs in CA1 pyramidal cells of acute hippocampal slices; type: cell-based; settings: for effect of a low dose after priming of NMDARs with high doses of glycine or D-serine: subsequent application of a low dose
[2] = test system: NMDAR (GluN1-WT or GluN1-A714L with GluN2A) in HEK293 cells; settings: 1 mM glycine
NMDAR [3] = test: Whole-cell voltage-clamp recordings of evoked NMDAR-EPSCs in CA1 pyramidal cells of acute hippocampal slices; type: cell-based, mouse; settings: 1 mM glycine, acute slices, cells infected with AAV-GluN1-A714L
[4] = 175 mg, clinical trials; cited from earlier work
NMDAR [5] = target: T1, NMDAR; test: NMDAR-EPSC trains in acute slices during the oxygen-glucose deprivation (OGD) paradigm; type: cell-based; settings: NMDAR-EPSC trains (20 Hz) recorded with GO
Text: Whole-cell electrophysiology on hippocampal slices and HEK293 cells. Whole-cell voltage-clamp recordings were obtained from visually identified CA1 pyramidal cells from acute hippocampal brain slices (300 μm thick) in oxygenated artificial cerebrospinal fluid (ACSF) as previously described (Martina et al., 2004, 2005). The cells were voltage-clamped at −65 mV using cesium methane sulfonate based internal solution and postsynaptic currents were evoked by electrical stimulation of the Schaffer collaterals with a bipolar stimulating electrode positioned in the Stratum radiatum. The intensity of the stimulation was adjusted to obtain evoked excitatory postsynaptic currents (EPSCs). […] To isolate the NMDAR-EPSC, a low concentration of MgCl2 (0.13 mM) ACSF was used wherein the CaCl2 concentration was increased to 3.5 mM to maintain cation balance.
Oxygen-glucose deprivation paradigm. To mimic ischemia, the acute slices were challenged by an oxygen-glucose deprivation paradigm (OGD) modified from Rossi et al. (Rossi et al., 2000). In this paradigm, external glucose was replaced with 7 mM sucrose, and the external solution was saturated with 95% N2/5% CO2 instead of 95% O2/5% CO2. Iodoacetate and cyanide were also added to the OGD external solution to block glycolysis and oxidative phosphorylation.
Purification of glycine oxidase. […]

Molecule: O=C(O)CN(CC(=O)O)c1ccccc1OCCOc1ccccc1N(CC(=O)O)CC(=O)O [BAPTA]
- effect on the decrease in NMDAR-EPSC amplitude induced by 1 mM exogenous glycine (NMDAR [1]; BAPTA 10 mM in the recording electrode): significant attenuation

- effect on the decrease in NMDAR-EPSC amplitude by 1 mM glycine (NMDAR [1]; 100 μM dynasore): abolished
- effect on the decrease in NMDAR-EPSC amplitude evoked by 1 mM D-serine (NMDAR [1]; dynasore): abolished
- effect on the decrease of NMDAR-EPSC amplitude induced by 250 μM glycine (NMDAR [1]; dynasore, GlyT1+/− mice): abolished
Molecule: O=C(N/N=C/c1ccc(O)c(O)c1)c1cc2ccccc2cc1O [dynasore]

- effect on NMDAR-EPSC amplitude (NMDAR [1]; 250 μM glycine, GlyT1+/− mice): significantly inhibited
- effect on NMDAR-EPSC amplitude (NMDAR [1]; 250 μM glycine, WT mice): potentiated
- effect on NMDAR-EPSC amplitude (NMDAR [1]; 1 mM glycine with low Ca2+ (1 mM)): increase in NMDAR-EPSC amplitude
- difference in NMDAR-EPSC amplitude between WT and GlyT1+/− mice (NMDAR [1]; bath application of 10 μM or 1 mM glycine): no significant effect
- effect of a low dose after priming of NMDARs with high doses of glycine or D-serine (NMDAR [1]): induced GINI
Molecule: NCC(=O)O [glycine]
- effect on NMDAR amplitude ([2]; cells expressing GluN1-A714L): significantly increased
- effect on amplitude of the NMDAR-EPSC ([2]; cells expressing GluN1-WT): significant decrease
- effect on NMDAR-EPSC amplitudes (NMDAR [3]): did not decrease
- effect on NMDAR-EPSC amplitude (NMDAR [1]; bath application of low glycine concentrations (below / ≤250 μM), WT slices): increased; also recorded: potentiated in a dose-dependent fashion
- effect on NMDAR-EPSC amplitude (NMDAR [1]; high glycine concentration (1 mM), normal Ca2+ (3.5 mM), WT slices): significantly reduced; also recorded: significant decrease

- effect on evoked NMDAR-EPSC amplitude (NMDAR [1]; 10 μM D-serine, WT and SR−/− mice): potentiated
- effects of increasing concentrations on NMDAR-EPSC amplitudes (NMDAR [1]; D-serine, WT mice): dose-dependent
- dose required to induce a decrease in NMDAR-EPSC amplitude (NMDAR [1]; SR−/− mice): 2 mM
- dose required to induce a decrease in NMDAR-EPSC amplitude (NMDAR [1]; WT mice): 1 mM
- dose-response curve of NMDAR-EPSC amplitudes relative to that of glycine (NMDAR [1]; WT mice): left-shifted
- effect of a low dose after priming of NMDARs with high doses of glycine or D-serine (NMDAR [1]): induced GINI
Molecule: N[C@H](CO)C(=O)O [D-serine]

Molecule: C[C@H](Oc1ccc(S(C)(=O)=O)cc1C(=O)N1CCN(c2ncc(C(F)(F)F)cc2F)CC1)C(F)(F)F [Bitopertin]
- tolerability at high dose [4]: relatively well tolerated

- effect on the decrease of the NMDAR-EPSC amplitude following OGD (NMDAR [5]): abolished
B1: GO: an enzyme that catalyzes the breakdown of glycine; His-tagged, from Bacillus subtilis, expressed in E. coli (protein, UniProt O31616 1-369, looked up)
Glycine oxidase: MKRHYEAVVIGGGIIGSAIAYYLAKENKNTALFESGTMGGRTTSAAAGMLGAHAECEERDAFFDFAMHSQRLYKGLGEELYALSGVDIRQHNGGMFKLAFSEEDVLQLRQMDDLDSVSWYSKEEVLEKEPYASGDIFGASFIQDDVHVEPYFVCKAYVKAAKMLGAEIFEHTPVLHVERDGEALFIKTPSGDVWANHVVVASGVWSGMFFKQLGLNNAFLPVKGECLSVWNDDIPLTKTLYHDHCYIVPRKSGRLVVGATMKPGDWSETPDLGGLESVMKKAKTMLPAIQNMKVDRFWAGLRPGTKDGKPYIGRHPEDSRILFAAGHFRNGILLAPATGALISDLIMNKEVNQDWLHAFRIDRKEAVQI
modifications: His tag
notes: an enzyme that catalyzes the breakdown of glycine; His-tagged, from Bacillus subtilis, expressed in E. coli
